From patent US20210196779A1, “Compositions and Methods for Treating Steroid Hormone-Related Diseases or Disorders” (YALE UNIVERSITY, priority 2018, published 2021)

Key:
Assay type in all cases: cell-based
[1] = system: MCF7 cells; experiment: Cell growth assay, MCF7 breast cancer cells; settings: in the presence or absence of E2, 4 days
Protocol: (§1) MCF7, T47D, MDA-MB-453, MDA-MB-231 breast cancer cells were grown in corning T75 cell culture flask in RPMI1640 medium supplemented with 5% FBS, 50 μg/ml Kanamycin in a 37° C., 5% CO2 incubator.
(§2) 20,000 cells in 1 ml of medium (phenol red free RPMI1640, 5% charcoal-dialysis FBS, 50 μg/ml Kanamyacin) were seeded per well of a 24-well plate and incubated in a 37° C. incubator with 5% CO2 overnight. Different concentrations of herbal extract were added to each well in order to have final concentrations from 50 μg/ml to 500 μg/ml. For prostate cancer cells, DHT (25 nM) was used to stimulate androgen receptor activity. For glucocorticoid receptor overexpressed LNCaP cells, dexamethasone (50 nM) was used to stimulate glucocorticoid receptor activity. For all breast cancer cells, E2 (10 nM) was used to stimulate ER activity. Control medium without any steroid hormone was used as a control setting. After 4 days of incubation, cells were fixed and stained for 2 h with 0.5% methylene blue in 50% ethanol, followed by washing with tap water to remove unbound dye. Plates were air dried and then cells were dissolved in 1% sarkosyl (sodium lauroyl sarcosinate) by shaking at room temperature for 3 h. Cell growth was quantified based on the amount of methylene blue adsorbed by the cells as measured by a spectrophotometer (Molecular Devices) at 595 nm. […]

[2] = system: H3K9 acetylation; experiment: Western blot, MCF7 and 22RV1 cells, H3K9 acetylation; settings: MCF7 and 22RV1 cells (FIGS. 11A-11B), 24 h
Protocol: (§3) Western blot analysis was used to determine the protein expression using protein specific antibodies. β-actin or histone 3 was used to normalize protein loading.
(§4) Total cell lysis was conducted using 2×SDS sample buffer (62.5 mM Tris-HCl, 2% SDS, 10% glycerol, 50 mM DTT, and 0.05% bromophenol blue). The samples were sonicated for 10 s to shear DNA. Cell nuclei were isolated using Tris buffer saline with 0.4% NP40. Cell extracts were then electrophoresed through 10% SDS-polyacrylamide gels and transferred to 0.2 μm nitrocellulose membranes (Bio-Rad Laboratories, Hercules, Calif.) with a Miniprotein II transferring apparatus (Bio-Rad). The membranes were blocked and probed in TBS-T buffer (1×TBS buffer, 0.2% Tween 20) containing 5% non-fat milk. […] Enhanced chemiluminescence reagents (Perkin-Elmer Life Science Products, Boston, Mass.) were used to visualize the immunoreactive bands and the densities of protein bands were scanned analyzed using ImageJ software from the NIH.

[3] = system: MDA-MB-453 cells; experiment: Cell growth assay, MDA-MB-453 breast cancer cells; settings: 4 days
Protocol: as §1, §2

[4] = system: Brd2; experiment: Western blot, MCF7 and 22RV1 cells, Brd2; settings: MCF7 (with or without E2) or 22RV1 (with or without DHT), 24 h
Protocol: as §3, §4

[5] = target: T1, glucocorticoid receptor (GR) (Homo sapiens, UniProt P04150); experiment: PSA-luciferase reporter assay, DEX induced, 22RV1 cells; parameters: endogenous in cells; settings: 22RV1 PSA-luciferase reporter cells
T1 sequence (P04150 whole entry): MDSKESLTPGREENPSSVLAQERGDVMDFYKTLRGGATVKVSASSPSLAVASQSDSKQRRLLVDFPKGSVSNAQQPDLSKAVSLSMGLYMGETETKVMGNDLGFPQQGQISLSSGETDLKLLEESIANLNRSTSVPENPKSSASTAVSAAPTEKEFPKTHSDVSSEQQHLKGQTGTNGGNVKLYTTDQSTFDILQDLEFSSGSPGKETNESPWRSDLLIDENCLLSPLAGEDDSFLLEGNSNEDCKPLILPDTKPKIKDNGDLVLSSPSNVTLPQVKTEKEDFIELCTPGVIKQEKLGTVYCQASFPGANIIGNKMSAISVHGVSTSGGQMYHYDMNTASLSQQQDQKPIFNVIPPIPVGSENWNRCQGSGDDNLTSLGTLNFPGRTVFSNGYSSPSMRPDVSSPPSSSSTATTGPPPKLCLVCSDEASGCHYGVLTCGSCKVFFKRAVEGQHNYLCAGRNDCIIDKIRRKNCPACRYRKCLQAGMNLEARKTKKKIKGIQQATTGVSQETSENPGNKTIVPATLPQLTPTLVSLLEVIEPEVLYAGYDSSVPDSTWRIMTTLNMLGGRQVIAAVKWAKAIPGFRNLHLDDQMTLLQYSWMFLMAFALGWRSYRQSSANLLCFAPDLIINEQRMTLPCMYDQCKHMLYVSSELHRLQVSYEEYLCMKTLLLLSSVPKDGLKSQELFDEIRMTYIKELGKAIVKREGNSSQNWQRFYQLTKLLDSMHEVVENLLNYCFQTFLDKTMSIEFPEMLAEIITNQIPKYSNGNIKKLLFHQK
Protocol: (§5) Reporter cells were treated with herbal extracts at 30, 100, 300, and 1000 μg/ml for 24 h in a 37° C.-CO2 incubator. DHT (25 nM) was used to stimulate androgen receptor activity. Dexamethasone (50 nM) was used to stimulate glucocorticoid receptor activity Cells were lysed using luciferase lysis buffer after which luciferase buffer with luciferin was added to generate luminescence. Luminescence was recorded using a luminescence microplate reader.

[6] = target: T2, GR (stimulated with DEX) (Homo sapiens, UniProt P04150); experiment: GR driven luciferase activity (DEX) in LNCaP-GR cells; settings: LNCaP-GR luciferase reporter cells
T2 construct: expressed in transfected cells; host or cells: LNCaP (LNCaP-GR)
T2 sequence (P04150 whole entry): as above
Protocol: Both LNCaP and GR overexpressing LNCaP cells were carrying luciferase reporters with AR response elements.
as §5

[7] = system: T4D cells; experiment: Cell growth assay, T4D breast cancer cells; settings: under E2 stimulation, 4 days
Protocol: as §1, §2

[8] = system: histone 2AX serine 139 phosphorylation; experiment: Western blot, MCF7 cells, H2AX-ser139; settings: presence or absence of E2, 24 h
Protocol: Western blot analysis was used to determine the protein expression using protein specific antibodies.
as §4, with “milk. Monoclonal rabbit anti-AR (1:5000), was used to detect androgen receptor (Abcam #133273), Glucocorticoid Receptor (D8H2) XP® Rabbit mAb #3660, ERa Antibody (F-10): sc-8002, BRD4 (E2A7X) Rabbit mAb #13440, Brd2 (D89B4) Rabbit mAb #5848, PARP (46D11) Rabbit mAb #9532, Acetyl-Histone H3 (Lys27) (D5E4) XP® Rabbit mAb #8173 and a monoclonal actin antibody diluted 1:2500 (Sigma, St. Louis, Mo.) was used to detect β-actin as the internal control to confirm equal protein loading.” for “milk.”

[9] = target: T1, glucocorticoid receptor (GR); experiment: PSA-luciferase reporter assay, DEX induced, PC3 cells; parameters: Western blot analysis for AR and GR protein expression in LNCaP, 22RV1 and PC3 cells; endogenous in cells; host or cells: PC3
Protocol: as §5

[10] = system: SGK1 mRNA (target gene of GR); experiment: qRT-PCR of DEX induced SGK1 mRNA; settings: 22RV1 or PC3 cells
Excerpt: FIGS. 5D-5E are graphs showing the effect of Y1830, RG (or the fraction comprising RG), and RGA (or the fraction comprising RGA) on the DEX induced glucocorticoid receptor mediated transcriptional response of 22RV1 and PC3 PSA-luciferase reporter cells. FIGS. 5F-5G are graphs showing the effect of Y1830 on SGK1 (target gene of GR) mRNA expression with or without DEX using qRT-PCR.
RNA was extracted from herb treated cells using the Roche High Pure RNA isolation kit. cDNA was then generated from RNA samples using a Bio-rad iScript Advanced cDNA synthesis kit for RT-qPCR. qPCR was performed using human NRF2, H01, NQO1 and β-actin primers (Table 1) and iTaq™ Universal SYBR® Green Supermix in a CFX PCR machine (Bio-rad). Relative mRNA expression was calculated based on the change of the threshold cycle relative to the internal control, β-actin, using a standard curve generated by purified PCR products.

inhibitory effect on DEX induced transcriptional response [5] | inhibition of DEX induced transcriptional response [6] | inhibitory effect on DEX induced transcriptional response [9] | SMILES | inhibition on the growth of MCF7 cells [1] | H3K9 acetylation [2] | inhibition of growth of double negative MDA-MB-453 cells [3] | Brd2 protein expression [4] | inhibitory effect on T4D cell growth [7] | histone 2AX serine 139 phosphorylation [8] | inhibition of DEX induced SGK1 mRNA expression [10]
 |  |  | Cc1c(OC2OC(CO)C(O)C(O)C2OC2OC(C)C(O)C(O)C2O)cc2c(c1O)C(=O)c1ccc(O)cc1C2=O [RG, 1,3,6-Trihydroxy-2-methyl-9,10-anthracenedione 3-O-[α-L-Rhamnopyranosyl-(1→2)-β-D-glucopyranoside]] | very weak growth inhibition |  |  |  |  |  | 
inhibitory effect | effectively inhibit | inhibitory effect | CC(=O)OCC1OC(Oc2cc3c(c(O)c2C)C(=O)c2ccc(O)cc2C3=O)C(OC2OC(C)C(O)C(O)C2O)C(O)C1O [RGA, 1,3,6-Trihydroxy-2-methyl-9,10-anthracenedione 3-O-[α-L-Rhamnopyranosyl-(1→2)-6-O-acetyl-β-D-glucopyranoside]] |  | did not have a large impact | inhibited the growth | decreased | strong inhibitory effect | triggered | inhibited
